# Data reported in patent US11180510B2, “Xanthine derivatives and uses thereof as inhibitors of bromodomains of BET proteins” (Centre national de la recherche scientifique, priority 2017, dated 2021).
# Read-outs that look alike come from different tables or passages of the source.
# Key:
# c-Myc = details: known inhibitors, background statement; cited from earlier work
# 61 bromodomains = experiment: Thermal shift assay selectivity profile on 61 bromodomains; assay type: binding; details: compound at 25 μM
# Protocol: FIG. 3. Thermal Shift Assay (TSA) of 43c. The evaluation was performed on 61 bromodomains. A cut-off at +/−3.5° C. was set.
# TSA “Bromoscan” assays (Reaction Biology) were performed in 384 well RT-PCR plate (BioRad) with a total working volume of 15 μL. The “BromoMelT™, containing the 61 GST- or His-tagged-bromodomains, SYPRO® Orange and a mix compounds as control, was purchased from Reaction Biology. For each point, 3 μL of protein (1×) and 12 μL master mix (buffer+SYPRO® Orange+compound at 25 μM or control mix compounds or DMSO (0.5%)) were mixed in plate. The plate was placed in a CFX384 RTQPC (BioRad), and heated 10 seconds at 25° C., then the temperature was increased from 25° C. to 90° C., by increment of 0.5° C. every 30 seconds. The fluorescence was recorded using FRET filters.
# Brd3(BD2) = molecular target: T1, Brd3(BD2) (Homo sapiens, UniProt Q15059); experiment: HTRF BET selectivity profile, Brd3(BD2); assay type: binding
# T1 construct: GST tagged bromodomain proteins were purchased from BPS Bioscience; purchased BPS Bioscience
# Protocol: (§1) HTRF assays were performed in white 384 Well Small Volume™ HiBase Polystyrene Microplates (Greiner) with a total working volume of 20 μL. Compounds were dispensed, with 100 nL per well (0.5% final DMSO), from a concentration stock of 10 mM in 100% DMSO and with serial DMSO dilutions, using an Echo® 550 robot from the Access Labcyte platform (Labcyte) and based on the transfer of liquid by acoustic wave. Then, 19.5 μL of buffer is added, using a Multidrop Combi (Thermo Fisher Scientific). Finally, for each assay, 200 nL of master mix (protein+donor+acceptor) and 200 nL of peptide Is added in the assay wells according to the final concentration and buffer described in Table 3, using the Echo® 550 robot (Labcyte). The IC50 measurements were performed in triplicates (Table 2 and 3). All HTRF reagents (donor and acceptor) were purchased from CisBio Bioassays and reconstituted according to the supplier protocols. The peptide was purchased from Genic Bio Synthetic. The BRD4(1) protein was produced and purified in the laboratory. HTRF signals were measured, after a final incubation (3 h or 6 h or overnight at room temperature or 4° C., according to the bromodomain), using a PHERAstar FS (BMG Labtech) with an excitation filter at 337 nm and fluorescence wavelength measurement at 620 and 665 nm, an integration delay of 60 μs and an integration time of 500 μs. Results were analyzed with a two-wavelengths signal ratio: [intensity (665 nm)/intensity (620 nm)]*104.
# (§2) Percentage of inhibition was calculated using the following equation: % inhibition=[(compound signal)−(min signal)]/[(max signal)−(min signal)]*100, where ‘max signal’ is the signal ratio with the compound vehicle alone (DMSO) and ‘min signal’ the signal ratio without peptide.
# (§3) Selectivity profiles of bromodomain inhibitors were performed as described in HTRF screen section. […] HTRF detection reagents (EPIgeneous™ Binding Domain kits) were purchased from Cisbio Bioassays and used according to supplier's protocol. GST tagged bromodomain proteins were purchased from BPS Bioscience and histone peptide from Genic Bio Synthetic.
# Jurkat cells = experiment: Cell Titer-Glo cell viability assay, Jurkat; assay type: cell-based; details: Homo sapiens, 72 h, mean of three experiments, NA = IC50 > maximal concentration used
# Protocol: (§4) The human leukemia cell line Jurkat (ATCC® TIB-152) and Molm14 was maintained in RPMI-1640 medium or MEMα, respectively and supplemented both with 10% FBS at 37° C. and 5% CO2.
# (§5) In antiproliferative assays, compounds were assayed for their growth inhibiting activity towards the described cancer cell lines using the Cell Titer-Glo Luminescent Cell Viability Assay as described by the manufacturer (Promega Corporation). Briefly, 10.000 cells were plated onto 96 well-plates (white with clear bottom (3610, Corning Costar)) in 90 μL media per well immediately before assay. 10 μL of compounds were added at different concentrations (ranging from 50 μM to 6 nM) to each well and cell cultures were incubated 37° C. during 72 h. Vehicle (DMSO) was used as negative control, JQ1 (a pan-BET inhibitor) was used as positive control and all compounds were tested in constant percentage of DMSO (1%). After addition of 50 μL Cell Titer-GLO, shaking 2 minutes and incubating at room temperature 10 minutes, the Luminescence was measured using a Centro luminometer LB960 (Berthold). Dose-response curves were generated and effective dose 50 values (EC50) were calculated using non-linear regression analysis (Graph Pad Prism).
# Brd2(BD2) = molecular target: T2, Brd2(BD2) (Homo sapiens, UniProt P25440); experiment: HTRF BET selectivity profile, Brd2(BD2); assay type: binding; details: read-out: Brd2(BD2) IC50
# T2 construct: GST tagged bromodomain proteins were purchased from BPS Bioscience; purchased BPS Bioscience
# Protocol: (§6) HTRF assays were performed in white 384 Well Small Volume™ HiBase Polystyrene Microplates (Greiner) with a total working volume of 20 μL. Compounds were dispensed, with 100 nL per well (0.5% final DMSO), from a concentration stock of 10 mM in 100% DMSO and with serial DMSO dilutions, using an Echo® 550 robot from the Access Labcyte platform (Labcyte) and based on the transfer of liquid by acoustic wave. Then, 19.5 μL of buffer is added, using a Multidrop Combi (Thermo Fisher Scientific). […] All HTRF reagents (donor and acceptor) were purchased from CisBio Bioassays and reconstituted according to the supplier protocols. The peptide was purchased from Genic Bio Synthetic. The BRD4(1) protein was produced and purified in the laboratory.
# as §2, §3
# BRD4(BD1) [1] = molecular target: T3, BRD4(BD1) (Homo sapiens, UniProt O60885); experiment: HTRF assay, BRD4(BD1)/histone peptide interaction; assay type: binding; set-up: made in house; details: for IC50: HTRF; for Ratio 4-1 vs 4-2: selectivity Brd4(BD1) vs Brd4(BD2), HTRF IC50
# Brd3(BD1) = Brd3(BD1) (Homo sapiens, UniProt Q15059); experiment: HTRF BET selectivity profile, Brd3(BD1); assay type: binding; set-up: GST tagged bromodomain proteins were purchased from BPS Bioscience; purchased BPS Bioscience; details: for Ratio 3-1 vs 3-2: selectivity Brd3(BD1) vs Brd3(BD2), HTRF IC50
# Protocol: as §6, §2, §3
# Brd4(BD2) = molecular target: T4, Brd4(BD2) (Homo sapiens, UniProt O60885); experiment: HTRF BET selectivity profile, Brd4(BD2); assay type: binding
# T4 construct: GST tagged bromodomain proteins were purchased from BPS Bioscience; purchased BPS Bioscience
# Protocol: as §1, §2, §3
# Brd2(BD1) = molecular target: T5, Brd2(BD1) (Homo sapiens, UniProt P25440); experiment: HTRF BET selectivity profile, Brd2(BD1); assay type: binding; details: for IC50: read-out: Brd2(BD1) IC50; for Ratio 2-1 vs 2-2: selectivity Brd2(BD1) vs Brd2(BD2), HTRF IC50
# T5 construct: GST tagged bromodomain proteins were purchased from BPS Bioscience; purchased BPS Bioscience
# Protocol: as §6, §2, §3
# Molm14 cells = experiment: Cell Titer-Glo cell viability assay, Molm14; assay type: cell-based; details: Homo sapiens, MOLM-14, 72 h, mean of three experiments, NA = IC50 > maximal concentration used
# Protocol: as §4, §5
# BRD4(BD1) [2] = molecular target: T3, BRD4(BD1); experiment: Isothermal Titration Calorimetry; assay type: binding; details: ITC; read-out: Binding affinity (Kd) to BRD4(1) by Isothermal Titration Calorimetry
# Protocol: FIG. 1. Isothermal Titration Calorimetry (ITC) of 43c. Thermogram (top) and non-linear least squares fit model of the integrated data (bottom) at 15° C. of Brd4 (BD1) […] as a function of the molar ratio of ligand to the protein.
# ITC was used to evaluate the thermodynamics parameters of the binding between BRD4 (BD1) and the selected compounds. Titrations were carried out on a MicroCal ITC200 microcalorimeter (GE Healthcare, Piscataway, N.J.). Each experiment was designed using a titrant concentration (protein in the syringe generally between 100 and 400 μM) set 10 to 15 times the analyte concentration (compound in the cell generally between 10 and 40 μM) and using 13 injections at 25° C. A first small injection (generally 0.2 μL) was included in the titration protocol in order to remove air bubbles trapped in the syringe prior titration. Raw data were scaled after setting the zero to the titration saturation heat value. Integrated raw ITC data were fitted to a one site non-linear least squares fit model using the MicroCal Origin plugin as implemented in Origin 7 (Origin Lab). Finally, ΔG and TΔS values were calculated from the fitted ΔH and KA values using the equations ΔG=−R.T.inKA and ΔG=ΔH−TΔS.
# Brdt(BD1) = molecular target: T6, Brdt(BD1) (Homo sapiens, UniProt Q58F21); experiment: HTRF BET selectivity profile, Brdt(BD1); assay type: binding
# T6 construct: GST tagged bromodomain proteins were purchased from BPS Bioscience; purchased BPS Bioscience
# Protocol: as §1, §2, §3
# acute leukemia = details: phase I study; cited from earlier work
# [3] = test system: BD2 domain of BRD2 and BRD3; details: cited from earlier work
# [4] = mean of three experiments, NA = IC50 > 50 μM, read-out: Brd4(8D1) IC50
# T5 sequence (P25440 74-180 limits assumed): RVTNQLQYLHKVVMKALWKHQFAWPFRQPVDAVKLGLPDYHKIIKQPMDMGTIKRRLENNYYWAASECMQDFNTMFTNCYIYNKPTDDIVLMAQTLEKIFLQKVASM
# Chain of Brd3(BD1) (Q15059 34-140 limits assumed): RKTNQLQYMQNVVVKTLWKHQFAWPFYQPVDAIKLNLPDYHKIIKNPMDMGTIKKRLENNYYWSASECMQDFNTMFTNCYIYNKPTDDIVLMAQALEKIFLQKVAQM
# T1 sequence (Q15059 306-415 limits assumed): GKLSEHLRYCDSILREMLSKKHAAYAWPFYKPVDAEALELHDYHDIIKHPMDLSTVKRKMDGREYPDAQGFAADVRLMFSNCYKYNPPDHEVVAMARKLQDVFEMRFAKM
# T2 sequence (P25440 344-453 limits assumed): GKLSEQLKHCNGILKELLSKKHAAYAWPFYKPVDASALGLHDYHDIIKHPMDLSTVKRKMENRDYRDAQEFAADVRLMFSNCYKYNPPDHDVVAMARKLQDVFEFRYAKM
IC50 (Brd3(BD2)) [nM],IC50 (Jurkat cells) [nM],IC50 (Brd2(BD2)) [nM],IC50 (BRD4(BD1) [1]; [4]) [nM],Ratio 4-1 vs 4-2 (BRD4(BD1) [1]),IC50 (Brd3(BD1)) [nM],Ratio 3-1 vs 3-2 (Brd3(BD1)),IC50 (Brd4(BD2)) [nM],IC50 (Brd2(BD1)) [nM],Ratio 2-1 vs 2-2 (Brd2(BD1)),Kd (BRD4(BD1) [2]) [nM],IC50 (Brdt(BD1)) [nM],Compound,effect on c-Myc expression (c-Myc),Bromodomain selectivity profile by thermal shift assay (61 bromodomains),also measured
–,–,–,–,–,–,–,–,–,–,–,–,Cc1sc2c(c1C)C(c1ccc(Cl)cc1)=N[C@@H](CC(=O)OC(C)(C)C)c1nnc(C)n1-2 [JQ1],strong downregulation of c-Myc,–,–
13500,19400,12800,355,27,596,23,9710,1460,9,433,8510,CCn1cnc2c1c(=O)[nH]c(=O)n2Cc1ccc(CNS(=O)(=O)c2ccc(OCc3ccccc3)cc2)cc1 [Compound 31a],–,not pan-BET selective,"IC50 (BRD4(BD1) [1]; triplicates, NA = IC50 > maximal concentration of compound used): 355 nM; IC50 (Molm14 cells): 1800 nM"
–,–,–,–,–,–,–,–,–,–,–,–,"Cc1sc2c(c1C)C(c1ccc(Cl)cc1)=N[C@@H](CC(=O)Nc1ccc(O)cc1)c1nnc(C)n1-2 [OTX015, (6S)-4-(4-chlorophenyl)-N-(4-hydroxyphenyl)-2,3,9-trimethyl-6H-thieno[3,2-f][1,2,4]triazolo[4,3-a][1,4]diazepine-6-acetamide]",–,–,"clinical response in acute leukemia (acute leukemia): induced remissions, including complete remission in two patients with refractory disease"
–,–,–,–,–,–,–,–,–,–,–,–,"COc1cc(OC)c2c(=O)[nH]c(-c3cc(C)c(OCCO)c(C)c3)nc2c1 [RVX-208, 2-[4-(2-hydroxyethoxy)-3,5-dimethylphenyl]-5,7-dimethoxy-4(3H)-quinazolinone]",no significant effect,–,bromodomain binding preference [3]: binds preferentially to the BD2 domain of BRD2 and BRD3
3470,39500,1610,283,10,456,8,2780,336,5,129,356,CCn1cnc2c1c(=O)[nH]c(=O)n2Cc1ccc(CNS(=O)(=O)c2ccc3c(c2)CCCC(=O)N3)cc1 [Compound 27c],–,pan-BET selective,"IC50 (BRD4(BD1) [1]; read-out: IC50 on BRD4(BD1) activity (concentration that inhibits protein-protein interaction by 50%), triplicates, NA = IC50 > maximal concentration of compound used): 283 nM"
